Assay results published in patent US9670162B2, “Mitochondrial aldehyde dehyrogenase-2 modulators and methods of use thereof” (The Board of Trustees of the Leland Stanford Junior …, priority 2013, dated 2017).
Where a chain is given by its changes, count along the chain named.

Columns and labels:
RLM stability T1/2 = assay type: in vitro ADME; conditions: rat, liver microsomes
Experimental: (§1) In vitro ADMET of compounds of the present disclosure was carried out according to known methods in the art. Below are data for certain compounds of the present disclosure.

Aqueous solubility = assay type: physicochemical
Experimental: as §1

LogD (pH 7.4) = assay type: physicochemical
Experimental: as §1

MLM stability T1/2 = assay type: in vitro ADME; conditions: mouse, liver microsomes
Experimental: as §1

human ALDH2 wild type = target: T1, human ALDH2 wild type (Homo sapiens, UniProt P05091); test: ALDH2 enzymatic assay (NADH at 340 nm), recombinant wild type enzyme; assay type: biochemical; set-up: key: −: no activation or inhibition; +: activation less than control 1; ++: activation similar to control 1, within 10%; +++: activation more than control 1 and less than control (compound 161); ++++: activation similar to compound 161, within 10%; conditions: activation relative to benchmarks control 1 and compound 161
T1 construct: His-tag (pTrcHis vector) (N); made in house; host or cells: E. coli BL21
T1 sequence (P05091 18-517): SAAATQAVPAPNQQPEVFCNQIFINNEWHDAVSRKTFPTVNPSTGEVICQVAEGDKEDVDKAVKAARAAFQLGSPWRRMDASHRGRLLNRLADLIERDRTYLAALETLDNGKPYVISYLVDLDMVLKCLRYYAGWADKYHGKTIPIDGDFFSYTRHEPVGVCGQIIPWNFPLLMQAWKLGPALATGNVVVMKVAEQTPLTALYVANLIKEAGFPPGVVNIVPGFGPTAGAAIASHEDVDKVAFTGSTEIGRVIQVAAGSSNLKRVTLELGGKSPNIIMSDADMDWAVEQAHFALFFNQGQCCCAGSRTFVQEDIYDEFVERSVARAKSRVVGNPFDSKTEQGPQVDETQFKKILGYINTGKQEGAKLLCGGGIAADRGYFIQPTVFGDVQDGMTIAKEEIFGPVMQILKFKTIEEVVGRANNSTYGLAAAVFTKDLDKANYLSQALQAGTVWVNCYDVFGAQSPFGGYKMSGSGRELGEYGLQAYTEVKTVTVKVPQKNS

[1] = target: T2, human ALDH2*2 recombinant mutant enzyme (E487K) (Homo sapiens, UniProt P05091, E504K); test: ALDH2 enzymatic assay (NADH at 340 nm), recombinant mutant enzyme; assay type: biochemical; set-up: key: −: no activation or inhibition; +: activation less than control 1; ++: activation similar to control 1, within 10%; +++: activation more than control 1 and less than control (compound 161); ++++: activation similar to compound 161, within 10%; conditions: activation relative to benchmarks control 1 and compound 161
T2 construct: His-tag (pTrcHis vector) (N); made in house; host or cells: E. coli BL21
T2 sequence (P05091 18-517 E504K): T1 sequence (P05091 18-517) with E487K

HLM stability T1/2 = assay type: in vitro ADME; conditions: human, liver microsomes; read-out: HLM T1/2
Experimental: as §1

NHPLM stability T1/2 = assay type: in vitro ADME; conditions: monkey, liver microsomes
Experimental: as §1

Plasma stability, human = assay type: in vitro ADME; conditions: plasma
Experimental: as §1

[2] = Plasma protein binding (PPB), rat; assay type: in vitro ADME
Experimental: as §1

CYP2C9 = CYP2C9 (Homo sapiens, UniProt P11712); test: Cyp inhibition 2C9; assay type: in vitro ADME
Chain of CYP2C9 (P11712 whole entry): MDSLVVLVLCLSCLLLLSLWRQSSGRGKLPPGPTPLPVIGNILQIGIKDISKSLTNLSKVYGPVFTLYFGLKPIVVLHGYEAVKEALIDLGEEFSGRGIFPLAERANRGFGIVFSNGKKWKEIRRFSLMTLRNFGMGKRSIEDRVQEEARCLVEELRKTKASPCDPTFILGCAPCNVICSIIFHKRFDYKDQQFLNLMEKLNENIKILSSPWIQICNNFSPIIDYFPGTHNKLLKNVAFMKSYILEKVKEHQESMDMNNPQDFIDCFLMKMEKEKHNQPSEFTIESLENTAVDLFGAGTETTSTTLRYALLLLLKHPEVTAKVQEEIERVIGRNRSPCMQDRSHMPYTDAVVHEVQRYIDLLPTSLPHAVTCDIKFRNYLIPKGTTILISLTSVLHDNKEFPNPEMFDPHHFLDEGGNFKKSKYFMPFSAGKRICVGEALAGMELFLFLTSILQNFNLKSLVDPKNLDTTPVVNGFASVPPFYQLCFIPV
Experimental: as §1

CYP3A4 = CYP3A4 (Homo sapiens, UniProt P08684); test: Cyp inhibition 3A4; assay type: in vitro ADME; conditions: 10 μM
Chain of CYP3A4 (P08684 whole entry): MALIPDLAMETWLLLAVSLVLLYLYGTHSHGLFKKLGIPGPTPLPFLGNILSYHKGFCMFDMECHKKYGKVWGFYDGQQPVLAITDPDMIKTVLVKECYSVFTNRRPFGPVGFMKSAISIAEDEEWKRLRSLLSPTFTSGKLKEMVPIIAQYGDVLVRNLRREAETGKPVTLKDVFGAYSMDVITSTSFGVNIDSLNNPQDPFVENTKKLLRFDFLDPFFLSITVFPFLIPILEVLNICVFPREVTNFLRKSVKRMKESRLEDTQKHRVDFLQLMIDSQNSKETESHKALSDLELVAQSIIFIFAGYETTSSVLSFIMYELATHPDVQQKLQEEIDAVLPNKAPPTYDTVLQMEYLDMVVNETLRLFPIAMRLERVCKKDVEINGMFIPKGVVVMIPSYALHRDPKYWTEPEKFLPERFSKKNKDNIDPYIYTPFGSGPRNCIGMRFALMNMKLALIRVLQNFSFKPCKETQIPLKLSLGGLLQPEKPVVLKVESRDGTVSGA
Experimental: as §1

Caco-2 permeability = assay type: in vitro ADME; conditions: human; for Papp A→B: read-out: Caco-2 Papp A-B; for efflux ratio: read-out: Caco-2 Papp B-A/A-B
Experimental: as §1

Plasma stability, rat = assay type: in vitro ADME
Experimental: as §1

CYP1A2 = target: T3, CYP1A2 (Homo sapiens, UniProt P05177); test: Cyp inhibition 1A2; assay type: in vitro ADME; conditions: 10 μM
T3 sequence (P05177 1-516): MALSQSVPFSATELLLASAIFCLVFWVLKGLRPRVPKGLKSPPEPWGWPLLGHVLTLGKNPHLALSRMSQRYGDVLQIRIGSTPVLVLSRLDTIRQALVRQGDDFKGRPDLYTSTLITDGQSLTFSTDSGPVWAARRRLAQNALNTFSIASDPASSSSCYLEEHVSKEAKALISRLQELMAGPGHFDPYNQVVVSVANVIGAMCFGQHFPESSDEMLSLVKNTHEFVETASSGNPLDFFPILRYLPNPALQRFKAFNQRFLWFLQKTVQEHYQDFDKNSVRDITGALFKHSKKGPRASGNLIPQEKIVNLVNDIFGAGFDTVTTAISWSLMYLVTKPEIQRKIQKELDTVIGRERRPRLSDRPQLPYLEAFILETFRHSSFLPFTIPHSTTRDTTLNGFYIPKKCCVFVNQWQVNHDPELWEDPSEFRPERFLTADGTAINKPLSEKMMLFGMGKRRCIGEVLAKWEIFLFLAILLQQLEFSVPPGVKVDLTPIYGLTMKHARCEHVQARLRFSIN
Experimental: as §1

[3] = Plasma protein binding (PPB), human; assay type: in vitro ADME
Experimental: as §1

CYP2C19 = CYP2C19 (Homo sapiens, UniProt P33261); test: Cyp inhibition 2C19; assay type: in vitro ADME; conditions: 10 μM
Chain of CYP2C19 (P33261 whole entry): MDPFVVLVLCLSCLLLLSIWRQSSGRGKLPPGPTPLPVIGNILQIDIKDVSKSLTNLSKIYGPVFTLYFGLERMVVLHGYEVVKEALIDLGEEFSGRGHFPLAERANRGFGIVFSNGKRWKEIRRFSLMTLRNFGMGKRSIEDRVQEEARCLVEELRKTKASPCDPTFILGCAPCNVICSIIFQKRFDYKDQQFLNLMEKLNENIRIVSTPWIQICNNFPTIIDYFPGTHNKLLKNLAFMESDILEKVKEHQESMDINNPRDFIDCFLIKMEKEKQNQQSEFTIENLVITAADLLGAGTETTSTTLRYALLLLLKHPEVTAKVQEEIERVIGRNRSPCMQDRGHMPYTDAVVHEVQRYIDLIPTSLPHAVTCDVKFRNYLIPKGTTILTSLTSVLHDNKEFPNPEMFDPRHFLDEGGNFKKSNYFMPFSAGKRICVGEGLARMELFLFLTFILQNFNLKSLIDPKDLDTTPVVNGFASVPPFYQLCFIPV
Experimental: as §1

CYP2D6 = CYP2D6 (Homo sapiens, UniProt P10635); test: Cyp inhibition 2D6; assay type: in vitro ADME
Chain of CYP2D6 (P10635 whole entry): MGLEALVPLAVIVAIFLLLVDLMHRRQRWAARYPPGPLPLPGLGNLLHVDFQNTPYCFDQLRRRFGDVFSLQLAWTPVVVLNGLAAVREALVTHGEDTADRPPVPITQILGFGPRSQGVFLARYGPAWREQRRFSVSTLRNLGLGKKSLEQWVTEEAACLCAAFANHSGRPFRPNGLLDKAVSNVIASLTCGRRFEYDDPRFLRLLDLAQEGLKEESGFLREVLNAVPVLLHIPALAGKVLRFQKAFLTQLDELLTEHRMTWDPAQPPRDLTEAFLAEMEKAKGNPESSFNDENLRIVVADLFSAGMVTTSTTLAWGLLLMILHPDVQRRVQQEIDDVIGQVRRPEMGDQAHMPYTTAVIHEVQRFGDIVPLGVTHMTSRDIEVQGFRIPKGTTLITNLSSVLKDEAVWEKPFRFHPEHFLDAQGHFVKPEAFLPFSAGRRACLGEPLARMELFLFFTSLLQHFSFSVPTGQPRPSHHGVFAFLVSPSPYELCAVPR
Experimental: as §1

SMILES	half-life (RLM stability T1/2)	Aqu. Solu. (Aqueous solubility)	logD (LogD (pH 7.4))	half-life (MLM stability T1/2)	ALDH2 (wild-type) (human ALDH2 wild type)	ALDH2 (mutant) [1]	half-life (HLM stability T1/2)	half-life (NHPLM stability T1/2)	Plasma stability Human (Plasma stability, human)	fraction unbound [2]	inhibition at 10 µM (CYP2C9)	inhibition at 10 µM (CYP3A4)	Papp A→B (Caco-2 permeability)	Papp B→A (Caco-2 permeability)	efflux ratio (Caco-2 permeability)	Plasma stability Rat (Plasma stability, rat)	inhibition at 10 µM (CYP1A2)	fraction unbound [3]	inhibition at 10 µM (CYP2C19)	inhibition at 10 µM (CYP2D6)
COc1ccc(CNC(=O)c2c(Cl)cccc2OCC2CC2)cc1F [Compound 135]	0.753 min	5 µg/mL	3.8	0.753 min	++++	++++	2.67 min	0.685 min												
COc1ccc(CNC(=O)c2c(Cl)cc[n+]([O-])c2OCC2CC2)cc1F [Compound 169]	82.5 min	272 µg/mL	1.6	100 min	+	++	3.85 min	51.3 min	100%	0.367	-12%	7.7%	1.22 ×10⁻⁶ cm/s	13.1 ×10⁻⁶ cm/s	10.7	100%	1.1%	0.098	3.5%	0.81%
Cc1nc2ccc(CNC(=O)c3c(Cl)ccnc3OCC3CC3)cc2[nH]1 [Compound 261]					+	+														
O=C(NCc1ccc2ncsc2c1)c1c(Cl)ccnc1OCC1CC1 [Compound 264]					−	−														
COc1cc(F)c(CNC(=O)c2c(Cl)ccnc2OCC(C)C)cc1F [Compound 269]					++++	++++														
COc1ccc(CNC(=O)c2c(Cl)ccn(C)c2=O)cc1F [Compound 273]					+	+														
O=C(NCc1ccc2c(c1)OCO2)c1c(Cl)cccc1Cl [Control 1, reference compound]	1.33 min	12 µg/mL	3.4	0.753 min	++	++	21.2 min	1.57 min	100%	0.037	16.3%	83.5%	16.6 ×10⁻⁶ cm/s	11.7 ×10⁻⁶ cm/s	0.7	100%	31.9%	0.025	72.4%	9.1%
